One series concerns the target neprilysin (NEP) (Homo sapiens, UniProt P08473). Description: Neprilysin degradation assay (LC-MS, quantitative). The note with it: human, pH 7.5. The protocol:
This experiment compared the in vitro NEP stability of the Arg/Leu peptides of the embodiments to native apelin isoforms and their A2 substituted counterparts. Peptides were incubated with recombinant human NEP (rhNEP, Sino Biological) at 37° C. for up to 72 h, and the extent of degradation was analyzed via LC-MS because of the overlapping elution patterns of peptide fragments. […] (McKinnie, S. M. K., et al. ChemBioChem: 17, 1495-1498 (2016)). […] (Dion, N., et al., Biochem. J.: 311, 623-627 (1995); Bateman Jr., R. C., et al., J. Biol. Chem.: 264, 6151-6157 (1989); McMurray, J. J. et al., J. Med.: 371, 993-1004 (2014)).
Apelin peptides were dissolved in Milli-Q water (1 mM). Recombinant human neprilysin (rhNEP, Sino Biological) was reconstituted in Tris buffer (100 mM Tris, 100 mM NaCl, 10 μM ZnCl2, pH 7.5). To initiate the assay, rhNEP was diluted in Tris buffer (3.1 nM final concentration), and preincubated at 37° C. for 10 minutes prior to the addition of 5 μL of apelin peptide (1 mM) and 1.5 μL internal standard dansyl-Tyr-Val-Gly-OH (1 mM). Aliquots (10 μL) were removed at 0, 1, 4, 24, and 72 h, quenched with 0.1 M EDTA (10 μL), diluted to 100 μL with Milli-Q water and analyzed by LC-MS. Assays were performed in triplicate (n=3) for each time point. Integrated peak areas of the parent apelin peptide and internal standard derived from LC-MS analyses, were extracted using Mass Hunter software (version B.04.00) and compared in positive extracted ion count modus (+EIC, extracted-ion chromatogram). […] (apelin:dansyl-YVG), to the same ratio at the different assay time points. The decrease in apelin:dansyl-YVG ratio was converted to a percentage of cleaved peptide over time.
The extent of degradation was analyzed via LC-MS because of the overlapping elution patterns of peptide fragments (NEP).
Native apelin-17 (2) and apelin peptides 5, 54, 56, 57, 58 and 59 were dissolved in Milli-Q water (1 mM). Recombinant human neprilysin (rhNEP, Sino Biological) was reconstituted in Tris buffer (100 mM Tris, 100 mM NaCl, 10 μM ZnCl2, pH 7.5). To initiate the assay, rhNEP was diluted in Tris buffer (3.1 nM final concentration) and preincubated at 37° C. for 10 min prior to the addition of 5 μL of apelin peptide (1 mM) and 1.5 μL of internal standard dansyl-Tyr-Val-Gly-OH (1 mM). Aliquots (10 μL) were removed at 0, 1, 4, 24, and 72 h, quenched with 0.1 M EDTA (10 μL), diluted to 100 μL with Milli-Q water, and analyzed by LC-MS. Assays were performed in triplicate (n=3) for each time point. Integrated peak areas of the parent apelin peptide and internal standard derived from LC-MS analyses were extracted using Mass Hunter software (version B.04.00) and compared in positive extracted ion count modus (+EIC). The extent of proteolysis was determined by comparing the initial (0 h) ratio of the integrated extracted ions of the parent apelin peptide to the internal dansyl-YVG standard (apelin/dansyl-YVG) to the same ratio at the different assay time points. The decrease in apelin/dansyl-YVG ratio was converted to a percentage of cleaved peptide over time.

Series [1] deals with Recombinant Human Neprilysin (Homo sapiens, UniProt P08473). Description: Neprilysin qualitative cleavage assay (MALDI-TOF). To be noted: rhNEP 2 ng/μL, 37° C., first degradation products by MALDI-TOF. The protocol: Native apelin-17 (2) and apelin peptides 5, 54, 56, 57, 58 and 59 were dissolved in Milli-Q water (1 mM). Recombinant Human Neprilysin (rhNEP, Sino Biological) was reconstituted in Tris buffer (100 mM Tris, 100 mM NaCl, 10 mM ZnCl2, pH 7.5). To initiate the assays, rhNEP was diluted in Tris buffer to a 2 ng/μL final concentration, and pre-incubated at 37° C. for 10 minutes prior to the addition of 5 μL of apelin peptide (1 mM). Aliquots (1 μL) were taken at 1, 2, 4, 6, 12, 24, 36, and 48 hours and analyzed with MALDI-TOF mass spectrometry to qualitatively determine the time point at which degradation products could be observed.

For series [2], the target named is Human plasma kallikrein KLKB1 (Homo sapiens, UniProt P03952). Description: Plasma kallikrein KLKB1 qualitative cleavage assay (MALDI-TOF). To be noted: KLKB1, 37° C., first degradation products by MALDI-TOF. The protocol: Native apelin-17 (2) and apelin peptides 5, 56, 57, 58 and 59 were dissolved in Milli-Q water (1 mM). Human plasma kallikrein KLKB1 were each reconstituted in Tris buffer (100 mM TrisHCl, 10 mM CaCl2), 150 mM NaCl) and diluted with Tris buffer (50 mM TrisHCl, 250 mM NaCl) to give a KLKB1 concentration of […]. The KLKB1 enzyme was then preincubated at 37° C. for 10 minutes prior to the addition of 5 μL of apelin peptide (1 mM). Aliquots (1 μL) were taken at 1, 2, 4, 6, 12, 24, 36, and 48 hours and analyzed with MALDI-TOF mass spectrometry to qualitatively determine the time point at which degradation products could be observed (Table 4).

The target in series [3] is T1, KLKB1 (Homo sapiens, UniProt P03952). As to the kind of experiment: In vitro KLKB1 stability (half-life). Format: in vitro ADME. Details: purchased Novoprotein. To be noted: human; rhKLKB1, 37° C.; read-out: t1/2 (rhKLKB1, h) (converted).
The test system of a further series is neprilysin (rhNEP). Description: recombinant human NEP (rhNEP, Sino Biological) in Tris buffer (100 mM Tris, 100 mM NaCl, 10 μM ZnCl2, pH 7.5). To be noted: 37° C, up to 72 h.
Series [4] concerns recombinant human neprilysin (rhNEP, Sino Biological). Description: rhNEP diluted in Tris buffer (100 mM Tris, 100 mM NaCl, 10 μM ZnCl2, pH 7.5), 3.1 nM final concentration. The note with it: 37° C., up to 72 h.
The nature of series [5]: human blood plasma (20 μL of plasma). To be noted: 37° C., up to 60 min.
Series [6] relates to KLKB1 (rhKLKB1, Novoprotein). Description: Human plasma kallikrein KLKB1 in Tris buffer, KLKB1 concentration of 2 ng/pL. The note with it: 37° C., up to 48 hours.
For series [7], the target named is T1, KLKB1. The note with it: enzyme KLKB1, data from Gozzo et al. 2006; cited from earlier work.

“And” between values parts separate entries of the source, which are not always exact repeats. Equal values may be shown once. Where a SMILES comes first, the peptide text is derived from it. [ ]: non-standard residue; d: D form. The star is where a group is joined. Phe(4-Br) = N[C@@H](Cc1ccc(Br)cc1)C(=O)O; Fmoc = O=C(OCC1c2ccccc2-c2ccccc21)*; PEG6 = NCCOCCOCCOCCOCCOCCOCCC(=O)O; NMeL = CN[C@@H](CC(C)C)C(=O)O; Nle = CCCC[C@H](N)C(=O)O; Aib = CC(C)(N)C(=O)O

T1 sequence (P03952 20-638): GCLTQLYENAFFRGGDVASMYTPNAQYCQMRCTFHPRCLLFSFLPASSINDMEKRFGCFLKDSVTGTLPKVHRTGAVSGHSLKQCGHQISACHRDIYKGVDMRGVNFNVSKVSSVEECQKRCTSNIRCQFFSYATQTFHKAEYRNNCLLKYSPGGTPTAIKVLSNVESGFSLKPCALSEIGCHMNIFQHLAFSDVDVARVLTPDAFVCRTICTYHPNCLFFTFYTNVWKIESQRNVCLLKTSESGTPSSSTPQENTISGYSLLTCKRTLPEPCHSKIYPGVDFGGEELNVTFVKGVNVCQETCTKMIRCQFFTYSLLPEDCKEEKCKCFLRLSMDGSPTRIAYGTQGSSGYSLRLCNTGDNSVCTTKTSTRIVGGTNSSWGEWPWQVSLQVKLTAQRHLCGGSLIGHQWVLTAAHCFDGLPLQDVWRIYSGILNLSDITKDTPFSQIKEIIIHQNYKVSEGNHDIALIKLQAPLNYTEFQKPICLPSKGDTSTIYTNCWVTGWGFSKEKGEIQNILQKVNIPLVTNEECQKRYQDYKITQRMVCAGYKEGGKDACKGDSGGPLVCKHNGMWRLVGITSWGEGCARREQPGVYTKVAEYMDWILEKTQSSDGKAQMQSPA
Sequence of Human plasma kallikrein KLKB1 (P03952 20-638): as above
Sequence of neprilysin (NEP) (P08473 whole entry, the tested form may be a part, canonical isoform): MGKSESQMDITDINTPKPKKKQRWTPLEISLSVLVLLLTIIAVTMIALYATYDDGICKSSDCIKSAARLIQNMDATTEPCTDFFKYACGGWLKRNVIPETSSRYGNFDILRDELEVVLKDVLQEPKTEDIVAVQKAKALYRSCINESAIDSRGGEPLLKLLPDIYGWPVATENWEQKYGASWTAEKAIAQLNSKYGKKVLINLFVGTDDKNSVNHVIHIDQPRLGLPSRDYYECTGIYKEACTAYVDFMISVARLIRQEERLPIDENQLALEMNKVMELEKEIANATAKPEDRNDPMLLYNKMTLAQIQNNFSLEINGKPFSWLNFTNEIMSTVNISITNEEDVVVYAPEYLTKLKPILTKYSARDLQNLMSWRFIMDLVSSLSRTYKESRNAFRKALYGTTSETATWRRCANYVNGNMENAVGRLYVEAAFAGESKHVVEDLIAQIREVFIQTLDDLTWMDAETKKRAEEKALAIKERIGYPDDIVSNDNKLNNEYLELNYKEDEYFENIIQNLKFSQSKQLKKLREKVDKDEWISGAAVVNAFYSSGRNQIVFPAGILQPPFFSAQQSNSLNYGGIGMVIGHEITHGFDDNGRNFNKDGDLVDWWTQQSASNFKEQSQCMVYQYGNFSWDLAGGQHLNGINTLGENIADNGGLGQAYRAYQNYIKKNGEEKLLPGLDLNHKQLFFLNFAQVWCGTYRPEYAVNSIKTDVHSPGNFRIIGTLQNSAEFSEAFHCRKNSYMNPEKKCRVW
Sequence of Recombinant Human Neprilysin (P08473 whole entry): as the sequence (P08473 whole entry, the tested form may be a part, canonical isoform) above

As for `CCCC[C@H](NC(=O)[C@@H]1CCCN1C(=O)CNC(=O)[C@H](CCCCN)NC(=O)[C@H](Cc1cnc[nH]1)NC(=O)[C@H](CO)NC(=O)[C@H](CC(C)C)NC(=O)[C@H](CCCNC(=N)N)NC(=O)[C@@H]1CCCN1C(=O)[C@H](CCCNC(=N)N)NC(=O)[C@H](CCC(N)=O)NC(=O)[C@H](CCCNC(=N)N)NC(=O)[C@H](CCCNC(=N)N)NC(=O)[C@H](Cc1ccccc1)NC(=O)[C@H](CCCCN)NC(=O)CCOCCOCCOCCOCCOCCOCCNC(=O)OCC1c2ccccc2-c2ccccc21)C(=O)NC(C)(C)C(=O)N[C@@H](Cc1ccc(Br)cc1)C(=O)O` [Peptide 57] ({Fmoc-PEG6}-KFRRQRPRLSHKGP[Nle][Aib][Phe(4-Br)]-OH), the half-life at neprilysin (NEP) is over 30 h; at KLKB1 [3] it was 1.4 h. The “Degradation Onset Timepoint with NEP” value in [1] is 12 h. The “Degradation Onset Timepoint with KLKB1” value in series [2] worked out at 1 h.
For the molecule “pGlu-Arg-Pro-Arg-D-Leu-Ser-His-Lys-Gly-Pro-Nle-Aib-paraBrPhe”, the cleaved bond entry with neprilysin (rhNEP) is “Nle11-Aib12, minor”; in [4], “Nle11-Aib12, minor”.
In series [5], “Lys-Phe-Arg-Arg-Gln-Arg-Pro-azaArg-Leu-Ser-His-Lys-Gly-Pro-Nle-Aib-paraBrPhe” displayed a not cleaved of 94 ± 3 % apelin at 60 min. Besides, in series [4], the cleaved bond entry is given as “Nle15-Aib16, minor”.
In the case of “Lys-Phe-Arg-Arg-Gln-Arg-Pro-Arg-D-Leu-Ser-His-Lys-Gly-Pro-Nle-Aib-paraBrPhe”, the cleaved bond result in the series with neprilysin (rhNEP) is listed as “Nle15-Aib16, minor”; in series [4], “Nle15-Aib16, minor”.
Turning to “Lys-Phe-Arg-Arg-Gln-Arg-Pro-Arg-Leu-Ser-His-Lys-Gly-Pro-Nle-Aib-paraBrPhe”, in [5], the fragment found is 1-3 and 4-17. Besides, the cleaved bond entry in series [6] is given as “Arg3-Arg4, <30 min”.
Consider `CCCC[C@H](NC(=O)[C@@H]1CCCN1C(=O)CNC(=O)[C@H](CCCCN)NC(=O)[C@H](Cc1cnc[nH]1)NC(=O)[C@H](CO)NC(=O)[C@H](CC(C)C)N(C)C(=O)[C@H](CCCNC(=N)N)NC(=O)[C@@H]1CCCN1C(=O)[C@H](CCCNC(=N)N)NC(=O)[C@H](CCC(N)=O)NC(=O)[C@H](CCCNC(=N)N)NC(=O)[C@H](CCCNC(=N)N)NC(=O)[C@H](Cc1ccccc1)NC(=O)[C@H](CCCCN)NC(=O)CCOCCOCCOCCOCCOCCOCCNC(=O)OCC1c2ccccc2-c2ccccc21)C(=O)NC(C)(C)C(=O)N[C@@H](Cc1ccc(Br)cc1)C(=O)O` [Peptide 59] ({Fmoc-PEG6}-KFRRQRPR[NMeL]SHKGP[Nle][Aib][Phe(4-Br)]-OH), for which the half-life at neprilysin (NEP) was over 30 h; on KLKB1 [3], 2.9 h. Moreover, the “Degradation Onset Timepoint with NEP” value in [1] was over 36 h. The “Degradation Onset Timepoint with KLKB1” value in series [2] stood at 2 h.

B1: Kininogen: KLKB1 substrate, kinetic data from Gozzo et al. (protein, UniProt P01042 19-644, looked up)
Kininogen-1: QESQSEEIDCNDKDLFKAVDAALKKYNSQNQSNNQFVLYRITEATKTVGSDTFYSFKYEIKEGDCPVQSGKTWQDCEYKDAAKAATGECTATVGKRSSTKFSVATQTCQITPAEGPVVTAQYDCLGCVHPISTQSPDLEPILRHGIQYFNNNTQHSSLFMLNEVKRAQRQVVAGLNFRITYSIVQTNCSKENFLFLTPDCKSLWNGDTGECTDNAYIDIQLRIASFSQNCDIYPGKDFVQPPTKICVGCPRDIPTNSPELEETLTHTITKLNAENNATFYFKIDNVKKARVQVVAGKKYFIDFVARETTCSKESNEELTESCETKKLGQSLDCNAEVYVVPWEKKIYPTVNCQPLGMISLMKRPPGFSPFRSSRIGEIKEETTVSPPHTSMAPAQDEERDSGKEQGHTRRHDWGHEKQRKHNLGHGHKHERDQGHGHQRGHGLGHGHEQQHGLGHGHKFKLDDDLEHQGGHVLDHGHKHKHGHGHGKHKNKGKKNGKHNGWKTEHLASSSEDSTTPSAQTQEKTEGPTPIPSLAKPGVTVTFSDFQDSDLIATMMPPISPAPIQSDDDWIPDIQIDPNGLSFNPISDFPDTTSPKCPGRPWKSVSEINPTTQMKESYYFDLTDGLS
With B1, in the series with KLKB1 [7], the Km was 0.75 µM and the turnover number (kcat) is 0.031 s⁻¹.

The record behind these values is patent US10640545B2 (THE GOVERNORS OF THE UNIVERSITY OF ALBERTA, priority 2017, dated 2020).
